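48-hour exposure; five concentrations; linearly interpolated endpoints. Abbreviation: GI50, concentration required for 50% inhibition of growth. Definition used: TGI = concentration required for complete inhibition of growth.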
Key:
Test in all cases: growth of human tumour cells (NCI), 48 h
COLO 205 colon = test system: COLO 205 colon
SK-OV-3 ovarian = test system: SK-OV-3 ovarian
SK-MEL-5 melanoma = test system: SK-MEL-5 melanoma
LOX IMVI melanoma = test system: LOX IMVI melanoma
HCT-116 colon = test system: HCT-116 colon
786-0 renal = test system: 786-0 renal
UACC-62 melanoma = test system: UACC-62 melanoma
SR leukemia = test system: SR leukemia
KM12 colon = test system: KM12 colon
SNB-75 CNS = test system: SNB-75 CNS

Row | Compound | TGI (COLO 205 colon) | TGI (SK-OV-3 ovarian) | TGI (SK-MEL-5 melanoma) | TGI (LOX IMVI melanoma) | TGI (HCT-116 colon) | TGI (786-0 renal) | TGI (UACC-62 melanoma) | TGI (SR leukemia) | TGI (KM12 colon) | TGI (SNB-75 CNS) | GI50 (COLO 205 colon) | GI50 (SK-OV-3 ovarian) | GI50 (SK-MEL-5 melanoma) | GI50 (LOX IMVI melanoma) | GI50 (HCT-116 colon) | GI50 (786-0 renal) | GI50 (UACC-62 melanoma) | GI50 (SR leukemia) | GI50 (KM12 colon) | GI50 (SNB-75 CNS)
1 | CC(C)(C)c1cc(Br)c(O)c(CN(Cc2cc(C(C)(C)C)cc(Br)c2O)C2CCCCC2)c1 | 23.3 µM | 29.2 µM | 22.8 µM | 29.8 µM | 25 µM | 27.7 µM | 25.3 µM | 25.6 µM | 29.4 µM | 20.9 µM |  |  |  |  |  |  |  |  |  | 
2 | COC(=O)[C@H](C)NC(=O)NC(=O)NC(=O)CI | 6.49 µM | 39.1 µM | 31.8 µM | 5.97 µM | 28.4 µM | 32.1 µM | 34.2 µM | 5.94 µM | 35.5 µM | 30.3 µM | 2.54 µM | 19 µM | 17.6 µM | 2.27 µM | 13.9 µM | 17.3 µM | 16.8 µM | 2.43 µM | 17.8 µM | 15.9 µM
3 | O=C(Cc1ccccc1)NN1C(=O)C(Cl)C1c1cc(Br)ccc1O (centres undefined) | > 100 µM | 39 µM | > 100 µM | > 100 µM | > 100 µM | > 100 µM | 30.7 µM | > 100 µM | > 100 µM | 34.4 µM |  |  |  |  |  |  |  |  |  | 
4 | Cc1cn(C2CC(O)C(CO)O2)c(=O)n2nnnc12 (centres undefined) | > 100 µM | > 100 µM | > 100 µM | > 100 µM | > 100 µM | > 100 µM | > 100 µM | > 100 µM | > 100 µM | > 100 µM |  |  |  |  |  |  |  |  |  | 
5 | COc1cc2c(cc1OC)C(CC(=O)NN=C(C)C)NCC2 (centres undefined) | > 100 µM | > 100 µM | > 100 µM | > 100 µM | > 100 µM | > 100 µM | > 100 µM | > 100 µM | > 100 µM | > 100 µM |  |  |  |  |  |  |  |  |  | 
6 | COc1cc2c3c(n(CCCNC(=O)OCC4c5ccccc5-c5ccccc54)c(=O)c2cc1OC)-c1cc2c(cc1/C3=C\CCNC(=O)OCC1c3ccccc3-c3ccccc31)OCO2 | > 50 µM | > 50 µM | > 50 µM | > 50 µM | > 12.9 µM | > 29.8 µM | > 36 µM | 21 µM | > 50 µM | > 50 µM | > 28 µM | > 25.6 µM | > 50 µM | > 22.5 µM |  | > 16.2 µM | > 21.6 µM | 3.29 µM | > 27.9 µM | > 50 µM
7 | C[C@@H]1CC(=O)C2CCCC1C2=O (some centres undefined) | > 100 µM | > 100 µM | > 100 µM | > 100 µM | > 100 µM | > 100 µM | > 100 µM | > 100 µM | > 100 µM | > 100 µM |  |  |  |  |  |  |  |  |  | 
8 | COC(C(O)CO)C(O)C(O)C(=O)NNc1ccccc1 (centres undefined) | 28.7 µM | > 100 µM | > 100 µM | > 100 µM | > 100 µM | > 100 µM | > 100 µM | > 100 µM | > 100 µM | > 100 µM |  |  |  |  |  |  |  |  |  | 
9 | Oc1cccnc1CN1CCCCC1 | > 100 µM | > 100 µM | > 100 µM | > 100 µM | > 100 µM | > 100 µM | > 100 µM | > 100 µM | > 100 µM | > 100 µM |  |  |  |  |  |  |  |  |  | 
10 | CCOC(=O)CC1(C(=O)OCC)c2[nH]c3ccccc3c2CCN1Cc1ccccc1 (centres undefined) | 34.3 µM | > 100 µM | 34.6 µM | 32.9 µM | 31.8 µM | 31.8 µM | 32.2 µM | 52.6 µM | 40.1 µM | 45.8 µM |  |  |  |  |  |  |  |  |  | 
11 | O=C(N/N=C/c1ccc(Cl)cc1)c1ccc(C(F)(F)F)nc1Nc1cccc(C(F)(F)F)c1 | 4.31 µM | 7.54 µM | 3.55 µM | 8 µM | 10.9 µM | 3.63 µM | 6.15 µM | 5.71 µM | 8.4 µM | 13.4 µM | 1.8 µM | 1.85 µM | 1.46 µM | 1.3 µM | 2.6 µM | 0.818 µM | 2.39 µM | 0.879 µM | 2.31 µM | 2.72 µM
12 | C1=CC2SSSC2C1 (centres undefined) | > 100 µM | > 100 µM | > 100 µM | > 100 µM | > 100 µM | > 100 µM | > 100 µM | > 100 µM | > 100 µM | > 100 µM |  |  |  |  |  |  |  |  |  | 
13 | N=C1C(c2nc3ccccc3s2)=C(O)CN1c1cc(C(F)(F)F)ccc1Cl | > 100 µM | > 100 µM | 46.7 µM | > 100 µM | 62.2 µM | > 100 µM | 42.7 µM | 4.91 µM | > 100 µM | > 100 µM | 30.8 µM | 51.4 µM | 6.61 µM | 22.7 µM | 8.59 µM | 38.1 µM | 5.06 µM | 1.81 µM | 20.5 µM | 24.1 µM
14 | COC1=C(C)C(=O)c2c(c(COC(N)=O)c3n2CC2C3N2C)C1=O (centres undefined) | 0.119 µM | 0.167 µM | 0.15 µM | 0.053 µM | 0.0641 µM | 0.102 µM | 0.117 µM | < 0.0354 µM | 0.143 µM | < 0.0446 µM |  |  |  |  |  |  |  |  |  | 
